Tests used:
EwS cell lines = assay: Cell viability (Celltiter-Glo) after drug exposure, EwS cell lines vs controls; assay type: cell-based, human; conditions: cell viability measured after 72 hours exposure, compared to controls IMR90 / U2OS
Protocol: Cell culture and transfections. Ewing sarcoma cell lines (TC32, CHLA10 and CHLA258) were obtained from Children's Oncology Group and EWS502 was obtained from Dr. Lessnick. Of note, TC32 is highly chemosensitive and CHLA10 was derived from a post-treatment recurrent chemoresistant tumor (Table 1). As controls, IMR90 (primary human neonatal fibroblast) and U2OS (pediatric Osteosarcoma) cell lines were obtained from ATCC. IMR90 and U2OS were cultured in DMEM (Corning), TC32, EWS502, RDES in […] (Corning), SKES1 in McCoys (Corning) and CHLA10, CHLA258 in IMDM (HyClone); all cultured media were supplemented with 10% FBS (Atlanta Biologicals) and 1% antibiotic/antimycotic solution (Corning). Cells were maintained at 37° C. in a humidified atmosphere with 5% CO2 and tested for mycoplasma contamination.
(§1) Cell viability. Cells were seeded at 30% confluence in 96 or 384 well plates with or without reverse transfection with siRNA. For plasmid expression, cells were transfected in 60 mm dishes first and then split into 96 or 384 well plates. The following day, the cells were treated to different drugs/inhibitors and cell viability was evaluated after 48 to 72 hours using Celltiter-Glo (Promega). Each condition was tested in triplicate. […] Drug screening data from an independently published study was obtained from http://www.cancerrxgene.org/.

IMR90 cells = assay: Transcription recovery assay (EU incorporation), IMR90; assay type: cell-based, human; conditions: exposed for 2 or 16 hours, 30 min EU labeling
Protocol: (§2) Transcription Recovery Assay. […] Post-incubation, cells were fixed, permeabilized and subjected to Click-iT RNA reaction (Click-iT RNA Alexa Flour […] Imaging kit, ThermoFisher Scientific) according to manufacturer's instructions. Washed coverslips were mounted onto glass slides using ProLong Antifade Mounting Solution with DAPI (ThermoFisher Scientific) and imaged using a Zeiss microscope at 63×. A minimum of 100 cells were analyzed for each condition. Image analysis was performed using ImageJ.

TC32 cells = assay: Transcription recovery assay (EU incorporation), TC32; assay type: cell-based, human; conditions: exposed for 2 or 16 hours, 30 min EU labeling
Protocol: as §2

[1] = test system: U2OS cells with EWSR1 knockdown; assay: Cell viability, EWSR1-depleted U2OS cells; assay type: cell-based, human; conditions: U2OS siEWSR1 relative to U2OS siCtrl; 72 hours
Protocol: (§3) All transfections were carried out using Lipofectamine RNAiMax, Lipofectamine 3000 (Invitrogen) following manufacturer's instructions. For RNASEH1 transfections, 3×10^6 TC32 cells were transfected with 13 μg of plasmid DNA using Amaxa nucleofection (program X-001). Gene knockdowns were performed by reverse transfection whereas plasmid transfections were performed 24 hours after seeding. The siRNAs used in this study include: BRCA1 and EWSR1 (Life Technologies), EWSR1, BRCA1, FLI1, FUS, TAF15, 53BP1, FANCA, FANCD2 and FANCI (Santa Cruz). For some experiments, lentiviral transduction of TC32 with shCtrl (clone RHZ4743, Life Technologies) or shFLI1 (clone V2THS227524 or V3THS414176, Life Technologies) was performed. EWS-FLI1, EWS-FLI1 R2L2, EWS-ERG, EWSR1 (full length) and shEWSR1 in pMSCV vector were obtained from Dr. Stephen Lessnick. EWSR1 N terminal domain in pLX304 vector was purchased from DNASU. GFP-RNASEH1 and FLAG-RNASEH1 plasmids were a kind gift from Dr. Robert Crouch (Eunice Kennedy Shriver National Institute of Child Health and Human Development). HA-BRCA1 was obtained from Dr. Yuzuru Shiio (UTH-SA). ISceI in pCAGGS vector was a kind gift from Dr. Maria Jasin (Memorial Sloan Kettering Cancer Center) and Dr. Jeremy Stark (City of Hope Cancer Center). All siRNA and plasmid transfections were accompanied with control siRNA or empty vector respectively.
as §1

[2] = test system: U2OS cells transfected with EWS-FLI1; assay: Cell viability, U2OS cells transfected with EWS-FLI1 vs empty vector; assay type: cell-based, human; conditions: compared to empty vector (EV) transfected cells
Protocol: as §3, with “ISceI in pCAGGS vector was a kind gift from Dr. Maria Jasin (Memorial Sloan Kettering Cancer Center) and Dr. Jeremy Stark (City of Hope Cancer Center). All siRNA and plasmid transfections were accompanied with control siRNA or empty vector respectively.” left out
Cell viability. […] The following day, the cells were treated to different drugs/inhibitors and cell viability was evaluated after 48 to 72 hours using Celltiter-Glo (Promega). […]

CDK9/cyclin T1 = molecular target: T1, CDK9/cyclin T1 (Homo sapiens, UniProt P50750); assay: In vitro RNAPII phosphorylation assay (Adapta kinase assay), CDK9; assay type: biochemical; conditions: 1 μM recombinant protein; substrates CDKtide or RNAPII CTD fragment; relative to vehicle
T1 construct: purchased ThermoFisher Scientific PV4131
Protocol: In vitro RNAPII phosphorylation assay. The following purified recombinant proteins were purchased: RNAPII CTD fragment (POLR2A-1149H, Creative BioMart), EWSR1 (TP303709, Origene), FUS (TP301808, Origene), CDK9/cyclin T1 (PV4131, ThermoFisher Scientific) and CDK7/cyclin H/MNAT1 (ab64303, Abcam). The in vitro kinase assay was performed using the Adapta kinase assay (PV5099, ThermoFisher Scientific) according to manufacturer's instructions. The template used for kinase activity was either 50 μM CDK7/9tide provided in the kit (PV5090, ThermoFisher Scientific), or 12 ng RNAPII CTD fragment. 1 μM EWSR1 or FUS was added to the substrate and 10 μM ATP kinase buffer and pre-incubated for 15 min. 1.77 μg/ml CDK9/cyclin T1 or 5.6 μg/ml CDK7/cyclin H/MNAT1 were then added and the kinase reaction was allowed to proceed for a further 45 minutes. 10 μM ADP and 10 μM ATP served positive and negative controls. Finally, Eu-labeled antibody and Alexa Fluor-647-labeled tracer added and the level of ATP consumption was measured 30 minutes later using BMG Labtech Pherastar microplate reader. Each condition was tested in quadruplicate and the overall experiment was repeated at least 3 times for independent validation.

T1 sequence (P50750 whole entry, the tested form may be a part): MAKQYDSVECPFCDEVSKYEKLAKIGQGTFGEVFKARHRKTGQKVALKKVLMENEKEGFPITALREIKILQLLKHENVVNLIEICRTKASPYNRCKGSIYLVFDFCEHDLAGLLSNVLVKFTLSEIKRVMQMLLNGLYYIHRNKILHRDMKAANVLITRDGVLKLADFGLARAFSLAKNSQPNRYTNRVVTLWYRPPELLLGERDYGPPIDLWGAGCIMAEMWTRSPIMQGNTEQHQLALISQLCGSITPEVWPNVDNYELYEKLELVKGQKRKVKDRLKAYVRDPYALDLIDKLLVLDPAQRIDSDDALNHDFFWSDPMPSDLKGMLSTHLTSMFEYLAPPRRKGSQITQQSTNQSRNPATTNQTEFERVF
T1 sequence (O60563 whole entry partner, the tested form may be a part): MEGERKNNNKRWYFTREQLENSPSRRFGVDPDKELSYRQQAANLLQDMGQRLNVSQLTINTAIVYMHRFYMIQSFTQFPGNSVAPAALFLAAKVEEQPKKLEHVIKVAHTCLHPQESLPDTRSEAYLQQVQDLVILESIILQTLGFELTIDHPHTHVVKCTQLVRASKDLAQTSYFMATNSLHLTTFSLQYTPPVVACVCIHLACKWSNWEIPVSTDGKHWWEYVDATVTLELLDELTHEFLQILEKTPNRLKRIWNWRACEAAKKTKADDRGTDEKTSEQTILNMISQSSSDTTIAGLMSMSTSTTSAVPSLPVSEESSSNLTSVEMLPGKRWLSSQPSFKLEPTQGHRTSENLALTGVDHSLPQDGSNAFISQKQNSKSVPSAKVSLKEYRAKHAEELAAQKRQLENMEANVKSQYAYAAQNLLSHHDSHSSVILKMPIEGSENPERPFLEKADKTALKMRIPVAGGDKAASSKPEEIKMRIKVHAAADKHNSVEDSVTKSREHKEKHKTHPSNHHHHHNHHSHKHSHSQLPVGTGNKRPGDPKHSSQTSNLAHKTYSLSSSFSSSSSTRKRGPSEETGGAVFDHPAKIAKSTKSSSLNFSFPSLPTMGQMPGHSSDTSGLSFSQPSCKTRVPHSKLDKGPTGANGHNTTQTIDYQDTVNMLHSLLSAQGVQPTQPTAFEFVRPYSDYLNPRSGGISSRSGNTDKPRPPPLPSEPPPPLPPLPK

Molecule	sensitivity (cell viability) of EwS cell lines compared to controls (EwS cell lines)	sensitivity (cell viability) of EWSR1-depleted U2OS cells [1]	also measured
NC(=O)NO [hydroxyurea]	acutely sensitive		
COc1cc([C@@H]2c3cc4c(cc3[C@@H](O[C@@H]3O[C@@H]5CO[C@@H](C)O[C@H]5[C@H](O)[C@H]3O)[C@H]3COC(=O)[C@H]23)OCO4)cc(OC)c1O [etoposide]	acutely sensitive		transcriptional activity (EU incorporation) after exposure (IMR90 cells): decrease in EU incorporation two hours post-damage followed by recovery at 16 hours; transcriptional activity (EU incorporation) after exposure (TC32 cells): much delayed loss of transcription
CC[C@@]1(O)C(=O)OCc2c1cc1n(c2=O)Cc2cc3ccccc3nc2-1 [camptothecin]	much more sensitive	much more sensitive	
O=c1c2ccccc2sn1-c1ccccc1 [R11]	significantly higher sensitivity		
CS(=O)(=O)c1ccc(-c2cnc(N)c(C(=O)Nc3ccccc3)n2)cc1 [VE-821]	significantly more sensitive	significantly more sensitive	sensitivity (cell viability) of U2OS cells expressing EWS-FLI1 [2]: significantly more sensitive
OC[C@H]1O[C@@H](n2cnc3cc(Cl)c(Cl)cc32)[C@H](O)[C@@H]1O [DRB, 5,6-dichloro-1-β-D-ribofuranosyl-1H-benzimidazole]	much more sensitive	much more sensitive	
O=C(c1cc(Cc2n[nH]c(=O)c3ccccc23)ccc1F)N1CCN(C(=O)C2CC2)CC1 [Olaparib]	exquisite sensitivity		sensitivity (cell viability) of U2OS cells expressing EWS-FLI1 [2]: exquisite sensitivity; sensitivity (cell viability) of EwS cell lines compared to controls (EwS cell lines; listed as olaparib): acutely sensitive
FUS: purified recombinant FUS protein (TP301808, Origene) (protein, UniProt P35637 1-526, looked up) RNA-binding protein FUS: MASNDYTQQATQSYGAYPTQPGQGYSQQSSQPYGQQSYSGYSQSTDTSGYGQSSYSSYGQSQNTGYGTQSTPQGYGSTGGYGSSQSSQSSYGQQSSYPGYGQQPAPSSTSGSYGSSSQSSSYGQPQSGSYSQQPSYGGQQQSYGQQQSYNPPQGYGQQNQYNSSSGGGGGGGGGGNYGQDQSSMSSGGGSGGGYGNQDQSGGGGSGGYGQQDRGGRGRGGSGGGGGGGGGGYNRSSGGYEPRGRGGGRGGRGGMGGSDRGGFNKFGGPRDQGSRHDSEQDNSDNNTIFVQGLGENVTIESVADYFKQIGIIKTNKKTGQPMINLYTDRETGKLKGEATVSFDDPPSAKAAIDWFDGKEFSGNPIKVSFATRRADFNRGGGNGRGGRGRGGPMGRGGYGGGGSGGGGRGGFPSGGGGGGGQQRAGDWKCPNPTCENMNFSWRNECNQCKAPKPDGPGGGPGGSHMGGNYGDDRRGGRGGYDRGGYRGRGGDRGGFRGGRGGGDRGGFGPGKMDSRGEHRQDRRERPY			inhibition of phosphorylation of RNAPII CTD by CDK9 (CDK9/cyclin T1): inhibited
EWSR1: purified recombinant EWSR1 protein (TP303709, Origene) (protein, UniProt Q01844 1-656, looked up) RNA-binding protein EWS: MASTDYSTYSQAAAQQGYSAYTAQPTQGYAQTTQAYGQQSYGTYGQPTDVSYTQAQTTATYGQTAYATSYGQPPTGYTTPTAPQAYSQPVQGYGTGAYDTTTATVTTTQASYAAQSAYGTQPAYPAYGQQPAATAPTRPQDGNKPTETSQPQSSTGGYNQPSLGYGQSNYSYPQVPGSYPMQPVTAPPSYPPTSYSSTQPTSYDQSSYSQQNTYGQPSSYGQQSSYGQQSSYGQQPPTSYPPQTGSYSQAPSQYSQQSSSYGQQSSFRQDHPSSMGVYGQESGGFSGPGENRSMSGPDNRGRGRGGFDRGGMSRGGRGGGRGGMGSAGERGGFNKPGGPMDEGPDLDLGPPVDPDEDSDNSAIYVQGLNDSVTLDDLADFFKQCGVVKMNKRTGQPMIHIYLDKETGKPKGDATVSYEDPPTAKAAVEWFDGKDFQGSKLKVSLARKKPPMNSMRGGLPPREGRGMPPPLRGGPGGPGGPGGPMGRMGGRGGDRGGFPPRGPRGSRGNPSGGGNVQHRAGDWQCPNPGCGNQNFAWRTECNQCKAPKPEGFLPPPFPPPGGDRGRGGPGGMRGGRGGLMDRGGPGGMFRGGRGGDRGGFRGGRGMDRGGFGGGRRGGPGGPPGPLMEQMGGRRGGRGGPGKMDKGEHRQERRDRPY			inhibition of phosphorylation of RNAPII CTD by CDK9 (CDK9/cyclin T1): inhibited
